Legend:
HLA-A*0201 = target: T1, HLA-A*0201 (Homo sapiens, UniProt P04439, D140Y/D185E/D98H/E176V/E277Q/G131W/G231S/I119V/I121R/I166T/I218V/L300P/L318F/N151K/N90K/P208A/P217A/Q86G/Q94H/R138H/R169H/T345S); experiment: T2 cell-stabilization assay (T2-binding); settings: for T2-binding Ratio of MFI: T2 cells 5×10^5, peptide 50 µg/mL + β2-microglobulin 5 µg/mL, 28°C 16–18 h, then brefeldin A 10 µg/mL 37°C 3 h, FITC anti-HLA-A2, flow cytometry, MFI relative to negative control HCV C55-74 (set as 1)
T1 construct: Human T2 cells (purchased from the American Type Culture Collection, ATCC) (ATCC No. CRL-1992) expressing the HLA-A*0201 gene; endogenous in cells; host or cells: human T2 cells (ATCC CRL-1992)
Experimental: T2 cells (5×10^5) cultured in 96-well U-bottom plates were incubated with the individual 9-mer synthetic peptides (50 µg/mL) and β2-microglobulin (5 µg/mL; Sigma-Aldrich) at 28°C for 16–18 hours. Subsequently, brefeldin A (10 µg/mL) was added and the cells were incubated at 37°C for another 3 hours, then washed and stained with fluorescence isothiocyanate (FITC)-conjugated mouse anti-human HLA-A2 antibody (SeroTec). Peptide-loaded T2 cells were acquired and analyzed on the FACScan flow cytometer using CellQuest software (Becton Dickinson). GLC-9 peptide was used as positive control (PC). The mean fluorescence intensity (MFI) represents the binding affinity of each peptide compared to MFI (set as MFI = 1) obtained from negative control (NC), which is T2 cells loaded with HCV peptide C55-74.
Twenty-five 9-mer synthetic peptides derived from the RSV F glycoprotein sequence presumed to encompass HLA-A*0201 binding motifs were synthesized (Table 1). Each was tested for its ability to bind HLA-A*0201 molecules by T2 cell-based binding assay (data not shown). The relative mean fluorescence intensity (MFI) obtained from the positive control (PC) peptide derived from Epstein-Barr virus capsid protein (GLC-9, a previously defined HLA-A*0201-restricted CTL epitope) was twofold (MFI = 1.96) compared to the baseline MFI = 1 obtained from the negative control (NC) treated with an unrelated peptide HCV C55-74 (a C57BL/6-specific CD4 epitope). […] The remaining peptides had no detectable binding to the HLA-A*0201 molecules. Apparently, the different MFIs generated by binding of RSV F-derived peptides to HLA-A*0201 reflects on the binding specificity of different peptides to a given HLA molecule.

[1] = system: splenocytes from HLA-A*0201 transgenic C57BL/6 mice; experiment: IFN-γ ELISPOT of splenocytes restimulated with peptide; assay type: cell-based, mouse; settings: for IFN-γ ELISPOT, RSV: splenocytes of HLA-Tg B6 mice primed and boosted i.n. with 10^4 pfu RSV-B1; for IFN-γ ELISPOT, RSV / IFN-γ ELISPOT, rAd-F0: restimulated with 2 µg peptide, representative of two experiments, five mice per group; for IFN-γ ELISPOT, rAd-F0: splenocytes of HLA-Tg B6 mice primed and boosted i.n. with 10^7 pfu rAd-F0; for IFN-γ level in restimulated splenocytes (ELISPOT, text grading): splenocytes of rAd-F0- or RSV B1-primed and boosted HLA-Tg B6 mice, high = over 100 spots, moderate = over 50 spots
Experimental: (§1) To screen the immunodominance of epitopic peptide in the induction of RSV-F specific Th1/Th2 expression, HLA-A*0201 transgenic C57BL/6 mice were anesthetized with isoflurane and immunized with 1×10^7 pfu/50 µL of rAd-F0 or rAd-LacZ or 1×10^4 live RSV B1 via the intranasal (i.n.) route. Twenty days later, the mice were given booster immunization i.n. with the same dose. After 10 days of boost, mice were sacrificed and splenocytes were isolated for the cytokine ELISPOT assay. For peptide-based vaccination, transgenic mice were immunized subcutaneously (s.c.) with 50 µg of the individual synthetic peptides emulsified in 25 µL of incomplete Freund's adjuvant (IFA) (Sigma-Aldrich) and then boosted after 10 days s.c. with the same dose of the respective peptides mixed with IFA. Mice were sacrificed 7 days after the booster and splenocytes were isolated for in vitro peptide-restimulation. For challenge studies, 10^7 pfu of live RSV-B1 was administered i.n. seven days after the booster immunization with peptide vaccines. Mice were sacrificed on day 4 post-challenge and the lung tissues were collected and subjected to further analysis by flow cytometry, ELISA, CTL assay and immunohistochemistry. Mice body weight was monitored daily.
(§2) […] RBC-free splenocyte suspensions prepared from the individual mice were seeded in individual wells of 96-well filtration plates (Millipore) precoated with capturing monoclonal antibodies for murine IL-2, IL-4 or IFN-γ (0.5 µg/ well) (eBioscience) and blocked with conditioned medium (CM) for 1 hour at room temperature. The splenocytes were added with the individual RSV F 9-mer synthetic peptides (2 µg each) or GLC-9 dissolved in CM (100 µL). The splenocytes added with Con A (10 µg/mL) were used as positive control. Unstimulated splenocytes were used as negative control. The plates were kept in a 37°C incubator equilibrated with 5% CO2 for 48 hours. The individual wells of the ELISPOT plates were washed three times with washing buffer (0.05% tween20 in PBS, PBS-T), and then 0.2 µg of the corresponding biotinylated detection monoclonal antibodies specific for IL-2, IL-4 and IFN-γ were added to detect the respective cytokines. After 2 hours of incubation at room temperature, the plates were washed and 100 µl of streptavidin-alkaline phosphatase (1∶ 250 dilution) was added to the individual wells, and the plates were incubated at room temperature for 45 minutes. Finally, the plates were washed four times with the wash buffer, and 100 µl of AEC (3-amine-9-ethylcarbazole, Sigma-Aldrich) substrate was added to each well and allowed to react for 30 minutes at room temperature in the dark. The plates were then washed with water, air-dried overnight, and the spots per well were scored using the immunospot counting reader (C.T.L. IMMUNOSPOT, CELLULAR TECHNOLOGY LTD). Results were expressed as the number of cytokine-secreting cells per 5×10^5 splenocytes seeded in the initial culture.
(§3) Figure 1 Induction of IFN-γ and IL-2 in splenocytes from RSV F peptide immunized HLA-A*0201 transgenic mice upon secondary recall. Splenocytes harvested on day 30 from HLA-A-Tg B6 mice primed and boosted at 20 days interval intranasally with 10^7 pfu of rAd-F0 (□) or 10^4 pfu of RSV-B1 (▪)were restimulated with 2 µg of the individual RSV F peptide or 10 µg/ml Con A for 5 days in the presence of murine IL-2 . After stimulation, 5×10^5 splenocytes were seeded to anti-IFN-γ (A) or anti-IL-2 (B) capture antibody coated ELISPOT plates for 2 days for ELISPOT assay as described in Materials and Methods. Cytokine-positive immunospots were developed and the results are expressed as the number of immunospots +/−2 standard deviations for each experimental group. Data is representative of results derived from two independent experiments, each with five mice per group.

[2] = system: splenocytes from HLA-A*0201 transgenic C57BL/6 mice; experiment: IL-2 ELISPOT of splenocytes restimulated with peptide; assay type: cell-based, mouse; settings: for IL-2 ELISPOT, RSV: splenocytes of HLA-Tg B6 mice primed and boosted i.n. with 10^4 pfu RSV-B1; for IL-2 ELISPOT, RSV / IL-2 ELISPOT, rAd-F0: restimulated with 2 µg peptide, representative of two experiments, five mice per group; for IL-2 ELISPOT, rAd-F0: splenocytes of HLA-Tg B6 mice primed and boosted i.n. with 10^7 pfu rAd-F0; for IL-2 level in restimulated splenocytes (ELISPOT, text grading): splenocytes of rAd-F0- or RSV B1-primed and boosted HLA-Tg B6 mice, high = over 100 spots, moderate = over 50 spots
Experimental: as §1, §2, §3

Substance	T2-binding Ratio of MFI (HLA-A*0201)	IFN-γ ELISPOT, RSV [1]	IFN-γ ELISPOT, rAd-F0 [1]	IL-2 ELISPOT, RSV [2]	IL-2 ELISPOT, rAd-F0 [2]	IFN-γ level in restimulated splenocytes (ELISPOT, text grading) [1]	IL-2 level in restimulated splenocytes (ELISPOT, text grading) [2]	binding affinity, MFI higher than the baseline (HLA-A*0201; T2 cell-based binding assay, baseline = negative control HCV C55-74, called modest binding affinity) [%]	binding to the HLA-A*0201 molecules (in words) (HLA-A*0201; T2 cell-based binding assay)	T2-binding Ratio of MFI (HLA-A*0201; listed as N)
10: HLA-A*0201-restricted 9-mer synthetic peptide from F protein of RSV-B1 strain (STNKAVVSL) [compound 10]	0.91	9.5 cytokine-secreting cells per 5×10^5 splenocytes	43 cytokine-secreting cells per 5×10^5 splenocytes	39.5 cytokine-secreting cells per 5×10^5 splenocytes	0 cytokine-secreting cells per 5×10^5 splenocytes	–	–	–	–	–
20: HLA-A*0201-restricted 9-mer synthetic peptide from F protein of RSV-B1 strain (IMITTIIIV) [compound 20]	1.03	9 cytokine-secreting cells per 5×10^5 splenocytes	200 cytokine-secreting cells per 5×10^5 splenocytes	24.5 cytokine-secreting cells per 5×10^5 splenocytes	32 cytokine-secreting cells per 5×10^5 splenocytes	over 100 spots	–	–	–	–
11: HLA-A*0201-restricted 9-mer synthetic peptide from F protein of RSV-B1 strain (SLSNGVSVL) [compound 11]	1.06	200 cytokine-secreting cells per 5×10^5 splenocytes	68.5 cytokine-secreting cells per 5×10^5 splenocytes	56.5 cytokine-secreting cells per 5×10^5 splenocytes	51.5 cytokine-secreting cells per 5×10^5 splenocytes	over 100 spots	over 50 spots	–	–	–
6: HLA-A*0201-restricted 9-mer synthetic peptide from F protein of RSV-B1 strain (FLLGVGSAI) [compound 6]	1.14	61.5 cytokine-secreting cells per 5×10^5 splenocytes	65 cytokine-secreting cells per 5×10^5 splenocytes	32 cytokine-secreting cells per 5×10^5 splenocytes	29 cytokine-secreting cells per 5×10^5 splenocytes	over 50 spots	–	~10	–	–
5: HLA-A*0201-restricted 9-mer synthetic peptide from F protein of RSV-B1 strain (FMNYTLNNT) [compound 5]	0.96	12.5 cytokine-secreting cells per 5×10^5 splenocytes	73 cytokine-secreting cells per 5×10^5 splenocytes	58.5 cytokine-secreting cells per 5×10^5 splenocytes	38 cytokine-secreting cells per 5×10^5 splenocytes	over 50 spots	over 50 spots	–	–	–
15: HLA-A*0201-restricted 9-mer synthetic peptide from F protein of RSV-B1 strain (KLMSNNVQI) [compound 15]	1.51	0 cytokine-secreting cells per 5×10^5 splenocytes	39 cytokine-secreting cells per 5×10^5 splenocytes	59.5 cytokine-secreting cells per 5×10^5 splenocytes	37 cytokine-secreting cells per 5×10^5 splenocytes	–	over 50 spots	–	–	–
7: HLA-A*0201-restricted 9-mer synthetic peptide from F protein of RSV-B1 strain (HLEGEVNKI) [compound 7]	0.83	81 cytokine-secreting cells per 5×10^5 splenocytes	68.5 cytokine-secreting cells per 5×10^5 splenocytes	33 cytokine-secreting cells per 5×10^5 splenocytes	68 cytokine-secreting cells per 5×10^5 splenocytes	over 50 spots	over 50 spots	–	–	–
24: HLA-A*0201-restricted 9-mer synthetic peptide from F protein of RSV-B1 strain (LLSLIAVGL) [compound 24]	1.71	0 cytokine-secreting cells per 5×10^5 splenocytes	84.5 cytokine-secreting cells per 5×10^5 splenocytes	42 cytokine-secreting cells per 5×10^5 splenocytes	5 cytokine-secreting cells per 5×10^5 splenocytes	over 50 spots	–	–	–	–
LLWVLLLWV [peptide 2, HLA-A*0201-restricted 9-mer synthetic peptide from F protein of RSV-B1 strain]	0.97	46.5 cytokine-secreting cells per 5×10^5 splenocytes	46.5 cytokine-secreting cells per 5×10^5 splenocytes	42 cytokine-secreting cells per 5×10^5 splenocytes	34.5 cytokine-secreting cells per 5×10^5 splenocytes	over 50 spots	–	–	–	–
RPQPRGRRQPIPKARQPEGR [HCV C55-74, reference compound]	1	–	–	–	–	–	–	–	no binding	1.00

Source: publication PMC3183052, “Immunoprotectivity of HLA-A2 CTL Peptides Derived from Respiratory Syncytial Virus Fusion Protein in HLA-A2 Transgenic Mouse” (PLoS ONE, 2011)
